According to ChEMBL document CHEMBL3813632, “Thiazolo[3,2-a]benzimidazol-3(2H)-one derivatives: Structure-activity relationships of selective nucleotide pyrophosphatase/phosphodiesterase1 (NPP1) inhibitors” (Bioorg Med Chem, 2016):
The source made the active and inactive calls. The rule behind the calls is not given here.

Legend:
[1] = Drug metabolism of the compound in MgCl2/CaCl2/CHES buffer assessed as 2-hydroxy-3-(5-iodofuran-2-yl)-1-(2-thioxo-2,3-dihydro-1H-benzo[d]imidazol-1-yl)prop-2-en-1-one metabolite formation at pH 9 after 24 hrs by LC-MS analysis; type: physicochemical; conditions: pH 9, 24 h
[2] = organism: Homo sapiens; test: Selectivity ratio of Ki for human recombinant Ecto-5'-nucleotidase to Ki for human recombinant NPP1
[3] = Chemical stability of the compound assessed as compound remaining at pH 9 at 25 degC after 24 hrs by HPLC-MS analysis; type: physicochemical; conditions: buffer, read-out: Stability
[4] = organism: Homo sapiens; test: Selectivity ratio of Ki for human recombinant NPP3 to Ki for human recombinant NPP1
[5] = Chemical stability of the compound assessed as compound remaining at pH 9 at 37 degC after 24 hrs by HPLC-MS analysis; type: physicochemical; conditions: buffer, read-out: Stability
[6] = target: T1, Ectonucleotide pyrophosphatase/phosphodiesterase family member 1 (Homo sapiens, UniProt P22413); test: Inhibition of human recombinant NPP1 expressed in insect SF9 cells using ATP as substrate preincubated with substrate followed by protein addition and subsequent incubation for 30 mins by capillary electrophoresis
T1 sequence (P22413 whole entry): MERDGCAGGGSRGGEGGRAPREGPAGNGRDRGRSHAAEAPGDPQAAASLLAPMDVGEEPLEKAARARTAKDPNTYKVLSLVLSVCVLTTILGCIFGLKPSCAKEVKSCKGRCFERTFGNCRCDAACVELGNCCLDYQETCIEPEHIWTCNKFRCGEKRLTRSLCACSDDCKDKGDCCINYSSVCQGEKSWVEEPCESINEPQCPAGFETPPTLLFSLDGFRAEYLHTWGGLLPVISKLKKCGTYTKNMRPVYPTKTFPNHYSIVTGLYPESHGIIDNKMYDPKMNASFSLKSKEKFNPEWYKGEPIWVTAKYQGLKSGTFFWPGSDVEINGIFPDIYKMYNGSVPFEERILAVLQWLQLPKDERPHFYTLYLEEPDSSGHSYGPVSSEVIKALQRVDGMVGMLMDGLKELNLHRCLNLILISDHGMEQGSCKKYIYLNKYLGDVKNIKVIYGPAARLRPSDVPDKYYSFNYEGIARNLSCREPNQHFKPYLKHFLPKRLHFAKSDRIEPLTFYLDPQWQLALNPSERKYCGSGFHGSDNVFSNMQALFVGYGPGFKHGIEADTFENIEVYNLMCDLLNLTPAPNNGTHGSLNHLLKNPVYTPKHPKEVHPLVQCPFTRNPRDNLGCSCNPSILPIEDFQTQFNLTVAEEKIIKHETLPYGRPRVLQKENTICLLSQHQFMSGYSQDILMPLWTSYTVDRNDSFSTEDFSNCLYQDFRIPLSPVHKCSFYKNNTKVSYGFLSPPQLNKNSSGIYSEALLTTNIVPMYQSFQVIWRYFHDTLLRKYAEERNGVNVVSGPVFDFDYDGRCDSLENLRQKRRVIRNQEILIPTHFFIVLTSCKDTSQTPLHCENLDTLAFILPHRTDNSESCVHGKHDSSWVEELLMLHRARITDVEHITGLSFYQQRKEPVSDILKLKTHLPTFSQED

[7] = organism: Homo sapiens; test: Selectivity ratio of Ki for human recombinant soluble NTPDase3 to Ki for human recombinant NPP1
[8] = target: T2, Ectonucleoside triphosphate diphosphohydrolase 2 (Homo sapiens) (UniProt Q9Y5L3); test: Inhibition of human recombinant NTPDase2 expressed in CHO cells using ATP as substrate at 10 to 1000 uM preincubated with substrate followed by protein addition and subsequent incubation for 30 mins by capillary electrophoresis
T2 sequence (whole entry): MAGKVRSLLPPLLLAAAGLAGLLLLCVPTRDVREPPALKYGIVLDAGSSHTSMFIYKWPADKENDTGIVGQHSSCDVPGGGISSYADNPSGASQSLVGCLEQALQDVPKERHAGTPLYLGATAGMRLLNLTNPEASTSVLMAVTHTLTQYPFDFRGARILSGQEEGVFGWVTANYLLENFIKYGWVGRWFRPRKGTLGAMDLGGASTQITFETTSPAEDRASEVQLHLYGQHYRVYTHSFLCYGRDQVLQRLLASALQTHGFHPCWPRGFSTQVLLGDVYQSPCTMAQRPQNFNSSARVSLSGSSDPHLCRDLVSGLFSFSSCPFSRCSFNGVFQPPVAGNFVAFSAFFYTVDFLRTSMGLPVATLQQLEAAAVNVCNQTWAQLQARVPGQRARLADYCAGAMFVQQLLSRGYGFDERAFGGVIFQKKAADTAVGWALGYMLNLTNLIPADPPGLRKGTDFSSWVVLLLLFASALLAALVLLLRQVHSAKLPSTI

[9] = organism: Homo sapiens; test: Selectivity ratio of Ki for human recombinant soluble NTPDase1 to Ki for human recombinant NPP1
[10] = target: T3, Alkaline phosphatase, tissue-nonspecific isozyme (Homo sapiens) (UniProt P05186); test: Inhibition of human recombinant TNAP expressed in NS0 cells using p-nitrophenyl phosphate as substrate at 10 to 1000 uM preincubated with substrate followed by protein addition and subsequent incubation for 30 mins by colorimetric analysis
T3 sequence (whole entry): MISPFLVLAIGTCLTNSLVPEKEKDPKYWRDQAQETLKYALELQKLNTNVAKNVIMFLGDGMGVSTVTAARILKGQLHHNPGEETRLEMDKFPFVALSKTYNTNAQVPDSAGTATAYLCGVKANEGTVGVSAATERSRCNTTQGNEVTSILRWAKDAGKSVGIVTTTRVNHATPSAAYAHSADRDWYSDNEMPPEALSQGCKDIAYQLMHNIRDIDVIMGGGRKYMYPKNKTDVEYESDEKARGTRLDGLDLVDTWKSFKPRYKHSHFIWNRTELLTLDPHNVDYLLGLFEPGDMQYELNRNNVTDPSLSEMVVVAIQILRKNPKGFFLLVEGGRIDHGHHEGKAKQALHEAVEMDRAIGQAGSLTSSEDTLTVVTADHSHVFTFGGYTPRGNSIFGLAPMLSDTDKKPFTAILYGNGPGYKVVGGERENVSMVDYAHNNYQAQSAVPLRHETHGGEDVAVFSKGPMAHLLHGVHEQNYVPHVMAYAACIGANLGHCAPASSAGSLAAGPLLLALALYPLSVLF

[11] = target: 5'-nucleotidase (Homo sapiens) (UniProt P21589); test: Inhibition of human recombinant Ecto-5'-nucleotidase expressed in CHO cells using AMP as substrate at >100 uM preincubated with substrate followed by protein addition and subsequent incubation for 30 mins by capillary electrophoresis
Chain of 5'-nucleotidase (Homo sapiens) (P21589 whole entry): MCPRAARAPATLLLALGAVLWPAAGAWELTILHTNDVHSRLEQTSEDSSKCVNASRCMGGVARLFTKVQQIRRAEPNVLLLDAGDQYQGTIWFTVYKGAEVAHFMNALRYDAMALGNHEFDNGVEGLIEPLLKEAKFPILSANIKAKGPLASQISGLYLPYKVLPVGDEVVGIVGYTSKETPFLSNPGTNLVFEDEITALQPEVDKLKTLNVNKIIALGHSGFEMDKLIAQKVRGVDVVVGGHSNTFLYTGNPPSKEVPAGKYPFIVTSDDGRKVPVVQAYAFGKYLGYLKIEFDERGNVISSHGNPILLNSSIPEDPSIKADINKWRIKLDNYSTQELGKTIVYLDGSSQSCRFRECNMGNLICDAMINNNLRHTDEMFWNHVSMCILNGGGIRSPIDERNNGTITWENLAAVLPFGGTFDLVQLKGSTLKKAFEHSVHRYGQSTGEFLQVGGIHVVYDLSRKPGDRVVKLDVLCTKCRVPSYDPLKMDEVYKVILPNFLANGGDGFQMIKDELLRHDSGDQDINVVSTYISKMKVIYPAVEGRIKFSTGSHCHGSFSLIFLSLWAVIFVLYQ

[12] = Chemical stability of the compound assessed as compound remaining at pH 7.4 at 25 to 37 degC after 8 to 24 hrs by HPLC-MS analysis; type: physicochemical; conditions: buffer

Drug metabolism [1]: metabolite_detected
Ratio Ki [2]: 1000
remaining at 24 h [3]: 52.4%
Ratio Ki [4]: 1000
remaining at 24 h [5]: 27.4%
Ki [6]: 467 nM
Ratio Ki [7]: 1000
inhibition [8]: inactive
Ratio Ki [9]: 1000
inhibition [10]: inactive
inhibition [11]: Active
Stability [12]: Stable
SMILES: O=c1/c(=C/c2ccc(I)o2)sc2nc3ccccc3n12
